Measured values as given in EP4792822A1, “USE OF PEPTIDE AMIDE COMPOUND IN PREPARATION OF DRUG FOR […] AND VOMITING” (Haisco Pharmaceutical Group Co., Ltd., priority 2023, dated 2025).

Test system: tumour subjects planned to receive highly emetogenic chemotherapy for the first time
Assay: Example 4: active-controlled dose-finding study of compound 1 injection for the prevention of chemotherapy-induced nausea and vomiting (CINV)
Assay type: in vivo, patients
Protocol: Study period: Treatment duration: Within 120 h after the first administration of highly emetogenic chemotherapeutic agents; Follow-up duration: Day 10 ± 1 after the first administration of highly emetogenic chemotherapeutic agents.
Protocol: This study was a multicentre, randomised, double-blind, active-controlled study. About 180 tumour subjects planned to receive highly emetogenic chemotherapy for the first time were randomised in a 1 : 1 : 1 ratio to three groups, with 60 subjects per group. Pre-chemotherapy study drug administration was completed 30 ± 10 min before the start of administration of the highly emetogenic chemotherapeutic agents. The dosing regimen was as follows: administration was performed in the following order: • 1) Compound 1 (placebo)/compound 1: A single dose was administered 30 ± 10 min before the start of administration of highly emetogenic chemotherapeutic agents, via intravenous bolus injection, with an intravenous bolus injection time of not less than 30 s. • 2) Dolasetron mesylate injection/dolasetron mesylate injection matching placebo: After the administration of compound 1/compound 1 (placebo), 5 ml (100 mg) of dolasetron mesylate injection/matching placebo was administered via intravenous bolus injection without dilution, and the infusion line was flushed with normal saline before and after administration. […]

## CC(=O)N1CC2(CCN(C(=O)[C@@H](CCCCN)NC(=O)[C@@H](CC(C)C)NC(=O)[C@@H](Cc3ccccc3)NC(=O)[C@H](N)Cc3ccccc3)CC2)C1 [Compound 1, (2R)-N-[(1R)-1-(2-acetyl-2,7-diazaspiro[3.5]nonane-7-carbonyl)-5-amino-pentyl]-2-[[(2R)-2-[[(2R)-2-amino-3-phenyl-propionyl]amino]-3-phenylpropionyl]amino]-4-methyl-pentanamide]
Example 4
  overall safety: good overall safety
Example 4, with dolasetron/aprepitant/dexamethasone background regimens
  effect on CINV: preventive and/or ameliorating effect on CINV
